Test results: ChEMBL document CHEMBL5726965, “Heterocyclic compounds as LSD1 inhibitors” (2018)

biological target: Lysine-specific histone demethylase 1A (Homo sapiens, UniProt O60341); experiment: Biochemical Assay: LANCE LSD1/KDM1A demethylase assay-10 μL of 1 nM LSD-1 enzyme (ENZO BML-SE544-0050) in the assay buffer (50 mM Tris, pH 7.5, 0.01% Tween-20, 25 mM NaCl, 5 mM DTT) were preincubated for 1 hour at 25° C. with 0.8 μL compound/DMSO dotted in black 384 well polystyrene plates. Reactions were started by addition of 10 μL of assay buffer containing 0.4 μM Biotin-labeled Histone H3 peptide substrate: ART-K(Mel)-QTARKSTGGKAPRKQLA-GGK(Biotin) SEQ ID NO: 1 (AnaSpec 64355) and incubated for 1 hour at 25° C. Reactions were stopped by addition of 10 μL 1×LANCE Detection Buffer (PerkinElmer CR97-100) supplemented with 1.5 nM Eu-anti-unmodified H3K4 Antibody (PerkinElmer TRF0404), and 225 nM LANCE Ultra Streptavidin (PerkinElmer TRF102) along with 0.9 mM Tranylcypromine-HCl (Millipore 616431). After stopping the reactions plates were incubated for 30 minutes and read on a PHERAstar FS plate reader (BMG Labtech).

SMILES | IC50
COC(=O)N(C)c1ccc(-c2c(-c3ccc(C#N)cc3)nc(N3CCC(N(C)C)CC3)n3ccnc23)cc1F | < 50 nM
COC(=O)N(C)c1ccc(-c2c(-c3ccc(C#N)cc3)nc(N3CCC(N(C)C)CC3)n3ccnc23)cc1 | < 50 nM
COC(=O)N(C)c1cc(-c2c(-c3ccc(C#N)cc3)nc(OC[C@@H]3CCCN(C)C3)n3ccnc23)ccc1C | < 50 nM
